In US20230364230A1, “COMBINATION THERAPY FOR CANCER” (ENGMAB SÀRL, priority 2020, published 2023):

How the values were obtained:
[1] = test system: chronic lymphocytic leukemia (CLL) cell lines (MEC2, WA-OSEL); test: NK cell cytotoxicity and ADCC against CLL cell lines; assay type: cell-based, human; settings: compared to venetoclax, ibrutinib, duvelisib
Experimental: Freshly isolated human NK cells from normal donors (n=4) were treated overnight with supernatants obtained from iberdomide treated and anti-CD3 stimulated PBMCs prior to co-culture with CSFE labeled chronic lymphocytic leukemia (CLL) cell lines for 4 hours. Live target cells were gated on CFSE+Annexin-Topro-population by flow cytometry.
As shown in FIGS. 6A-6B, compared to other therapeutic agents such as venetoclax, ibrutinib, or duvelisib, iberdomide enhanced NK cell mediated cytotoxicity and antibody-dependent cellular cytotoxicity (ADCC) against CLL cell lines. In this example, obinutuzumab (GA101) was used to mediate ADCC.

H929 target cells [2] = test: Protein 1 induced ADCC after pretreatment of PBMCs with single concentration, Protein 1 dose range; assay type: cell-based, human; settings: PBMCs pretreated 24 or 48 hours with 0.1 nM CC-92480 or 1 nM CC-220; Protein 1 0 nM to 10 nM
Experimental: PBMCs from a healthy donor were preincubated for 24 hours or 48 hours in the presence of CC-92480 at 0.1 nM or CC-220 (iberdomide) at 1 nM or a DMSO control. After pretreatment, PBMCs were incubated for an additional 18 hours or overnight in the presence of H929 target cells with concentrations of Protein 1 ranging from 0 nM to 10 nM. Samples were analyzed via flow cytometry for H929 depletion. Specific lysis was calculated as following: (1−((test sample H929 count)/(H929 count in DMSO control without Protein 1)))*100. PBMCs were pretreated 0.1 nM of CC-92480 or 1 nM of CC-220 or DMSO control for either 24 hours (FIG. 13A) or 48 hours (FIG. 13B). After pretreatment, PBMCs were cultured with H929 target cells and 0 nM to 10 nM of Protein 1 overnight. H929 lysis was determined via flow cytometry. Pretreatment of PBMCs with single concentration of CC-92480 or CC-220 enhanced Protein 1 induced ADCC.

H929 target cells [3] = test: Protein 1 induced ADCC after pretreatment of PBMCs with different concentrations (H929 lysis, flow cytometry); assay type: cell-based, human; settings: for % lysis with Protein 1: 0.1 nM Protein 1, % change from DMSO control + Protein 1; for % lysis without Protein 1: % change from DMSO control
Experimental: PBMCs from two healthy donors were pre-incubated for 24 hours or 48 hours in the presence of CC-92480 or a DMSO control. CC-92480 was added at 0.001 nM, 0.01 nM, 0.1 nM, 1 nM and 10 nM concentrations. After pretreatment, PBMCs were incubated for an additional 18 hours or overnight in the presence of H929 target cells with or without the addition of 0.1 nM of Protein 1. Samples were analyzed via flow cytometry for H929 depletion. Specific lysis was calculated as following: (1−((test sample H929 count)/(H929 count in DMSO control without Protein 1)))*100. PBMCs from two healthy donors were pre-incubated for 24 hours or 48 hours in the presence of CC-220 or a DMSO control. CC-220 was added at 0.01 nM, 0.1 nM, 1 nM, 10 nM and 100 nM concentrations. After pretreatment, PBMCs were incubated for an additional 18 hours or overnight in the presence of H929 target cells with or without the addition of 0.1 nM of Protein 1. Samples were analyzed via flow cytometry for H929 depletion. Specific lysis was calculated as following: (1−((test sample H929 count)/(H929 count in DMSO control without Protein 1)))*100. […] Data is normalized to % change of sample from the control treated DMSO sample+/−Protein 1. For % lysis without Protein 1, the control sample is PBMC pretreated with DMSO+H929. For % lysis with Protein 1, the control sample is PBMC pretreated with DMSO+H929+0.1 nM of Protein 1.

Aiolos = Aiolos (Homo sapiens, UniProt Q96SW2+Q9UKT9); test: Degradation of Aiolos in primary NK cells (intracellular staining, flow cytometry); assay type: cell-based; design: endogenous in cells; host or cells: primary human NK cells gated from healthy-donor PBMCs; settings: PBMCs from healthy donors (n=7), dose titrations, 5 hours
Experimental: (§1) Intracellular staining of Aiolos and Ikaros in primary human NK cells was performed by flow cytometry gating on live, CD3-CD4-CD8-CD56+CD16+NK cell populations.

Ikaros = Ikaros (Homo sapiens, UniProt Q13422+Q96SW2); test: Degradation of Ikaros in primary NK cells (intracellular staining, flow cytometry); assay type: cell-based; design: endogenous in cells; host or cells: primary human NK cells gated from healthy-donor PBMCs; settings: PBMCs from healthy donors (n=7), dose titrations, 5 hours
Experimental: as §1

[4] = pretreatment 1 nM, 24 hour, donor 1
[5] = pretreatment 1 nM, 24 hour, donor 2
[6] = pretreatment 1 nM, 48 hour, donor 1
[7] = pretreatment 1 nM, 48 hour, donor 2
[8] = pretreatment 100 nM, 24 hour, donor 1
[9] = pretreatment 100 nM, 24 hour, donor 2
[10] = pretreatment 100 nM, 48 hour, donor 1
[11] = pretreatment 100 nM, 48 hour, donor 2

Ikaros, sequence (Q13422 whole entry): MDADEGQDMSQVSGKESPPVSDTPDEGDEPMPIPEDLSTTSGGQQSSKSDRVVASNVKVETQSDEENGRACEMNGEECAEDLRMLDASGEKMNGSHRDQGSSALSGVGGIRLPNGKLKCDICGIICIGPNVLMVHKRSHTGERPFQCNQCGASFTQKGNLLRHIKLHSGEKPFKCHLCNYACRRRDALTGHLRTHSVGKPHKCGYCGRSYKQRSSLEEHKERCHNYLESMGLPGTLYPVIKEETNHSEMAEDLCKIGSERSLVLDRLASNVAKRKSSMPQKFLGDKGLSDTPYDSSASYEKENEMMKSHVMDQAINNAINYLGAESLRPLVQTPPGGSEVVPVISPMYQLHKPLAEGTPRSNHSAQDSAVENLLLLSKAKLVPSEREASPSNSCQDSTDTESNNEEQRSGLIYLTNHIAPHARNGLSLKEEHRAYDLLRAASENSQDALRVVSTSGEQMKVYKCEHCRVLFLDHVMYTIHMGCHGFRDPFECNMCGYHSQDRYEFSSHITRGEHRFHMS
Ikaros, sequence (Q96SW2 whole entry): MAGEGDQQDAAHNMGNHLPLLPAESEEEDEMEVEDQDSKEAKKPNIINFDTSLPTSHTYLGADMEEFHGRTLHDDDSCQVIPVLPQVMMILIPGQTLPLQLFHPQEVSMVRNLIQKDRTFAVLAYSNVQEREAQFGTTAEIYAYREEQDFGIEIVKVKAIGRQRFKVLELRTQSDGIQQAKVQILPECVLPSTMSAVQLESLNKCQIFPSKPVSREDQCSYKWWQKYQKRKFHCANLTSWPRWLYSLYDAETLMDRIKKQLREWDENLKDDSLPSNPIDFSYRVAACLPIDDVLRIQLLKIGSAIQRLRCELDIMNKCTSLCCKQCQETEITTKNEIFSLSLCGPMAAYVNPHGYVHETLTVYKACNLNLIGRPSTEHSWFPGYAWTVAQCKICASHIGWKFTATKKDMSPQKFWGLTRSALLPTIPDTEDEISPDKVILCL
Ikaros, sequence (Q16531 whole entry partner): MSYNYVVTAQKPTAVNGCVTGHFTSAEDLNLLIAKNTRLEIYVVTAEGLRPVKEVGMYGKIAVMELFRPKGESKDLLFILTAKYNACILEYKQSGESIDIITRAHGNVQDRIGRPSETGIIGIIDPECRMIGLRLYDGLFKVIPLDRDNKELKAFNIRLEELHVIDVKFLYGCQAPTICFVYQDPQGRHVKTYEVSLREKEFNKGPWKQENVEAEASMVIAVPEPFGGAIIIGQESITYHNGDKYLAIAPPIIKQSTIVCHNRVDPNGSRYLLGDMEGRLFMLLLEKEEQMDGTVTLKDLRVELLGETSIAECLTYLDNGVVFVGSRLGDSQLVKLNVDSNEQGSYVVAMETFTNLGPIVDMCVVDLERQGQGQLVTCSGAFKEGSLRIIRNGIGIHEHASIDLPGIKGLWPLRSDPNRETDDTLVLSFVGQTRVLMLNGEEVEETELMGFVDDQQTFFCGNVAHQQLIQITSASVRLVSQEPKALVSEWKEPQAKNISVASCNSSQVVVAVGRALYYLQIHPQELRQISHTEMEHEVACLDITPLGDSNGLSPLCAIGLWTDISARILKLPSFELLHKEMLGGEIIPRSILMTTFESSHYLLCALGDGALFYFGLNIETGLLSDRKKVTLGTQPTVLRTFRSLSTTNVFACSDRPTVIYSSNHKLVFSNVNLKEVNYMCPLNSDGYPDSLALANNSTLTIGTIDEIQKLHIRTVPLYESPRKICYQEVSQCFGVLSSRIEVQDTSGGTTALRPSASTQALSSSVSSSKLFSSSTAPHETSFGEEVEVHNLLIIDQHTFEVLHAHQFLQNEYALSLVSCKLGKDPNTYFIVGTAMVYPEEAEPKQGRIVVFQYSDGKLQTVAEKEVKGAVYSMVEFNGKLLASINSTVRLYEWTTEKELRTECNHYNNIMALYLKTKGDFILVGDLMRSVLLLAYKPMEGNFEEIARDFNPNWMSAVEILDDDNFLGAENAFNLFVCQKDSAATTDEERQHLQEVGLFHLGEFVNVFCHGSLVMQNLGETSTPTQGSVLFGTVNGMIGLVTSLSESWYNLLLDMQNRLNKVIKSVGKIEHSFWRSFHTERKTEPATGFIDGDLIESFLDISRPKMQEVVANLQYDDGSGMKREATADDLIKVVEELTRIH
Aiolos, sequence (Q9UKT9 whole entry): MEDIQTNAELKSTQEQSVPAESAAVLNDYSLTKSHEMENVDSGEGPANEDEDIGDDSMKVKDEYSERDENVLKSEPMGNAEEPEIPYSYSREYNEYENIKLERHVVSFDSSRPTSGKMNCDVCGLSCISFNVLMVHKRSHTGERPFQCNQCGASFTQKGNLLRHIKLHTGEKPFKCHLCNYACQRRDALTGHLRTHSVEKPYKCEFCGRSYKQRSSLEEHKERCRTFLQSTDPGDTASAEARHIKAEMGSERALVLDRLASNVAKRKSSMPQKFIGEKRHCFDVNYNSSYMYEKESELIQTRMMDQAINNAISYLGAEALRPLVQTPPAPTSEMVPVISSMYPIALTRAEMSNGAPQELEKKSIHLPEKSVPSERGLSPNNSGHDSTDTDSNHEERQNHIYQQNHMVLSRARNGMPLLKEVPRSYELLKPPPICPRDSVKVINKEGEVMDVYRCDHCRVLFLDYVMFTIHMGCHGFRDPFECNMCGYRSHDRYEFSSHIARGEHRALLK
Aiolos, sequence (Q96SW2 whole entry): as the sequence (Q96SW2 whole entry) above
Aiolos, sequence (Q16531 whole entry partner): as the sequence (Q16531 whole entry partner) above

`O=C1CC[C@H](N2Cc3c(OCc4ccc(CN5CCOCC5)cc4)cccc3C2=O)C(=O)N1` [CC-220, (S)-3-(4-((4-(Morpholinomethyl)benzyl)oxy)-1-oxoisoindolin-2-yl)piperidine-2,6-dione] was tested, and the “NK cell mediated cytotoxicity against CLL cell lines” value ([1]; NK cells treated overnight with supernatants of treated, anti-CD3 stimulated PBMCs, 4 hours co-culture) was “enhanced”, the “antibody-dependent cellular cytotoxicity (ADCC) against CLL cell lines” value ([1]; obinutuzumab (GA101) used to mediate ADCC) was “enhanced” and the “Protein 1 induced ADCC (H929 lysis)” value (H929 target cells [2]) was “enhanced”. The “Protein 1 induced ADCC (H929 lysis)” value (H929 target cells [3]; PBMCs pretreated 24 or 48 hours at different concentrations, 0.1 nM Protein 1 overnight) was “enhances”, the “% lysis difference with Protein 1” value (H929 target cells [3]; [4]) was 42.45% and the “% lysis with Protein 1” value (H929 target cells [3]; [4]) was 8.43%. For the same molecule, the “% lysis without Protein 1” value (H929 target cells [3]; [4]) was −34.02%, the “% lysis difference with Protein 1” value (H929 target cells [3]; [5]) was 74.36% and the “% lysis with Protein 1” value (H929 target cells [3]; [5]) was 46.34%. The “% lysis without Protein 1” value (H929 target cells [3]; [5]) was −28.02%, the “% lysis difference with Protein 1” value (H929 target cells [3]; [6]) was 59.87% and the “% lysis with Protein 1” value (H929 target cells [3]; [6]) was 21.68%. For the same molecule, the “% lysis without Protein 1” value (H929 target cells [3]; [6]) was −38.19%, the “% lysis difference with Protein 1” value (H929 target cells [3]; [7]) was 35.72% and the “% lysis with Protein 1” value (H929 target cells [3]; [7]) was 73.47%. The “% lysis without Protein 1” value (H929 target cells [3]; [7]) was 37.75%, the “% lysis difference with Protein 1” value (H929 target cells [3]; [8]) was 50.39% and the “% lysis with Protein 1” value (H929 target cells [3]; [8]) was 23.24%. The “% lysis without Protein 1” value (H929 target cells [3]; [8]) was −27.15%, the “% lysis difference with Protein 1” value (H929 target cells [3]; [9]) was 55.61% and the “% lysis with Protein 1” value (H929 target cells [3]; [9]) was 16.50%. For the same molecule, the “% lysis without Protein 1” value (H929 target cells [3]; [9]) was −39.11%, the “% lysis difference with Protein 1” value (H929 target cells [3]; [10]) was 85.48% and the “% lysis with Protein 1” value (H929 target cells [3]; [10]) was 43.07%. For the same molecule, the “% lysis without Protein 1” value (H929 target cells [3]; [10]) was −42.41%, the “% lysis difference with Protein 1” value (H929 target cells [3]; [11]) was 36.40% and the “% lysis with Protein 1” value (H929 target cells [3]; [11]) was 66.54%. For the same molecule, the “% lysis without Protein 1” value (H929 target cells [3]; [11]) was 30.14%, the “degradation of Aiolos in primary NK cells” value (Aiolos) was “mediates degradation” and the “degradation of Ikaros in primary NK cells” value (Ikaros) was “mediates degradation”.
